According to patent publication US20250073202A1, “METHODS TO TREAT RENAL DISORDERS USING CALCIUM CHANNEL INHIBITORS” (The Trustees of Indiana University, priority 2018, published 2025):

Legend:
human blood CD4+ cells = assay: In vitro stimulation of human blood CD4+ cells from AKI patients with elevated sodium, IL17 response; assay type: cell-based; settings: 170 mM Na+, overnight (~12 hours)
Experimental: For in vitro stimulation of human blood cells, primary T cells were isolated from fresh blood using Straight whole blood CD4 kit from Miltneyli Biotech (Miltenyli, San Diego, CA) according to manufactures' protocol. CD4+T cells were plated at a density of 1×10^6 cells/mL in RPMI medium supplemented with FBS. Cells were stimulated with human anti-CD3/CD28 dynabeads (Gibco; Catalogue no 11161D) along with labeled treatment overnight (˜12 hours). T cells were harvested and incubated with monensin for 6 hours, prior to staining for IL-17 (Table 4).

[1] = tested on: progression of CKD induced by high-salt diet following recovery from I/R injury; assay: AKI-to-CKD progression: unilateral I/R, contralateral nephrectomy and high salt diet in rats (Study III); assay type: in vivo, rat
Description: Study III was designed to investigate SOCE on progression of CKD induced by high-salt diet following recovery from I/R injury using a model of AKI-to-CKD described previously. Rats acclimated to a standard diet (AIN 76A, Dyets, Bethlehem, PA) containing 0.4% NaCl were subjected to left unilateral I/R or sham surgery and allowed to recover for ˜5 weeks. Rats were then subjected to right unilateral nephrectomy and subsequently exposed to elevated dietary Na+ (AIN76A plus 4% NaCl) for an additional 4 weeks (FIG. 9). Sham-control rats were not subjected to renal pedicle clamping, but were subjected to unilateral nephrectomy. Simultaneous with exposure to high salt diet, rats were randomly assigned to vehicle or YM58483 treatment (1mg·kg^−1·day^−1; p.o.). At the end of all studies, rats were deeply anesthetized with 50-100 mg/kg pentobarbital (Fatal Plus, Vortech, Dearborn, MI) and kidneys harvested for analysis.
To measure creatinine, tail blood was collected in heparin containing tubes and centrifuged to collect plasma. Plasma creatinine was measured using a Pointe Scientific Analyzer and Creatinine Assay reagents using methods outlined by the manufacturer (Pointe Scientific, Canton MI). Urine was collected for 24 hours by placing rats in metabolic cages and urine volume was determined gravimetrically. Urine creatinine was measured using a colorimetric assay adopted for microplate readers. Creatinine clearance was measured using UCr*V/PCr.
At the time of tissue harvest, kidneys were bisected and one half was fixed by immersion in 10% formalin, embedded in paraffin and 5 μm sections stained with picrosirus red to assess fibrosis. For quantitative analysis, five random images of renal outer medulla were obtained using Leica DMLB (Scientific Instruments, Columbus, OH) microscope with a 20× objective. The percent area of picrosirus red stain was scored in a blinded fashion using Image J (NIH).
Total RNA was obtained from kidney using Trizol and the Zymogen RNA extraction kit and cDNA was prepared using MMLV enzyme (Invitrogen, Carlsburg, CA). Quantitative real time PCR (qPCR) using gene specific primers was performed using ABI 7500 (Applied Biosystems, Foster City, CA). mRNA values were calculated using 2^−ΔΔCt. Specific primers sequences for IL-6 (catalog #Rn01410330_m1), Kim-1 (#Rn00597703_m1) and IL17 (Rn01757168_m1) were purchased from ThermoFisher (Waltham, MA).
Freshly harvested kidneys were minced and digested in liberase (2 μg/ml. Roche, Indianapolis IN) for 15 min at 37° C. using Gentle MACs (Miltenyli, San Diego, CA). The digested tissue was filtered through a 100-μm mesh and washed with RPMI containing 10% fetal bovine serum (Invitrogen). Mononuclear cells were isolated using Percol (Sigma) density gradient centrifugation.
To evaluate protein expression of IL17 or Orai1, Orai2 or Orai3, cells were restimulated with PMA and ionomycin for 6 hours in the presence of monensin (Golgistop, 1 μg·ml, BD Biosciences) permeabilized with saponin ([…]) and stained with relevant antibody. Cells were scanned using flow cytometry (FACSCalibur, BD Biosciences, San Jose, CA) and scans were analyzed using Flowjo software (Tree Star, Ashland, OR).
Study III was designed to investigate SOCE on progression of CKD induced by high-salt diet following recovery from I/R injury using a model of AKI-to-CKD described previously. Rats acclimated to a standard dict (AIN 76A, Dyets, Bethlehem, PA) containing 0.4% NaCl were subjected left unilateral I/R or sham surgery and allowed to recover for ˜5 weeks. Rats were then subjected to right unilateral nephrectomy and subsequently exposed to elevated dietary Na+ (AIN76A plus 4% NaCl) for an additional 4 weeks (FIG. 9). Sham-control rats were not subjected to renal pedicle clamping, but were subjected to unilateral nephrectomy. Simultaneous with exposure to high salt dict, rats were randomly assigned to vehicle or YM58483 treatment (1 mg·kg−1·day−1; p.o.). […]

AKI-primed CD4+ cells = assay: Fura-2 imaging of intracellular Ca2+ responses in AKI-primed CD4+ cells; assay type: cell-based, rat; settings: superfusate with Ang II and elevated Na+; to levels similar to sham
Experimental: To assess Ca^2+ responses, fura2 imaging was performed. Briefly, isolated CD4+ T cells were loaded with fura-2AM (2.5 μM, Sigma, St. Louis, MO) for 45 min, washed, placed on poly-lysine (Sigma) coated coverslips and placed in a superfusion chamber with physiological salt solution (PSS) containing 2 mM Ca^2+. The chamber was mounted on an inverted epifluorescence microscope and signal measured with alternating excitation at 340 and 380 nm and emission at 510 nm using the InCa^2+-imaging system (Intracellular Imaging Systems, Cincinnati, OH). Data were acquired at 1.5 Hz and representative tracings were smoothed to the 10 nearest neighbor points using GraphPad Prism. For analysis, an increase in signal intensity of >1 standard deviation from baseline was considered a positive response. Frequency of responding cells was determined from an average 53±19 cells for each animal.

[2] = 1 mg/kg/day p.o. during 4 weeks high salt diet

Cc1nnsc1C(=O)Nc1ccc(-n2nc(C(F)(F)F)cc2C(F)(F)F)cc1 [YM58483/BPT2, N-[4-[3,5-Bis(trifluoromethyl)-1H-pyrazol-1-yl]phenyl]-4-methyl-1,2,3-thiadiazole-5-carboxamide]
IL17 response to elevated extracellular sodium (human blood CD4+ cells): inhibited
Kidney IL6 mRNA expression [1, 2]: significantly attenuated
expression of Kim-1 [1, 2]: significantly attenuated
increase in B cells [1, 2]: significantly attenuated
increase in MΦ/dendritic cells [1, 2]: significantly attenuated
increase in kidney CD4+ cells [1, 2]: significantly attenuated
increase in kidney CD8+ cells [1, 2]: significantly attenuated
increased expression (re-stimulation) of IL17+ cells [1, 2]: significantly attenuated
urinary albumin excretion [1, 2]: significantly attenuated
creatinine clearance (reduction relative to sham) ([1]; end of study, 9 weeks post I/R): significantly attenuated
development of interstitial fibrosis ([1]; picrosirius red, renal outer medulla): significantly attenuated
percentage of Ca2+-responding cells (AKI-primed CD4+ cells): significantly attenuated
